Data on one compound can be found in patent US20230190870A1, “Method for Treating Lysosomal Storage Diseases with Histatin Peptides” (THE BOARD OF TRUSTEES OF THE UNIVERSITY OF ILLINOIS, priority 2020, published 2023).

For assay [1], the system named is Human corneal epithelial cells. As to the kind of experiment: Calcium Green-2 calcium signaling in human corneal epithelial cells. Type of assay: cell-based. Here is the method: Calcium Signaling. Human corneal epithelial cells were treated with Hst1 or Hst5, stained with Calcium Green-2, and relative fluorescence intensity was monitored at 1, 2 and 4 hours. […] This normalization of cellular calcium levels seen after toxicity from benzalkonium chloride treatment is analogous to toxic effects seen in chronic pain and other conditions. As such, histatin peptides may of use in the amelioration of chronic pain.

Assay [2] concerns HCE cells. Description: Immunofluorescence imaging of internalization and localization. It counts as cell-based, human. Here is the method:
Immunofluorescence Imaging. HCE cells were seeded on glass coverslips (Fisher Scientific Co.; Pittsburgh, Pa.) within a 6-well plate at 3×10^5 (cells/well) seeding density. […] HCE cells were then fixed in 3.7% paraformaldehyde, permeabilized with phosphate-buffered saline (PBS) containing 0.2% TRITON™ X-100 for 5 minutes, and washed three times for 5 minutes each time in PBS. For blocking, cells were and incubated at room temperature for 30 minutes with 5% bovine serum albumin (BSA) and 5% normal goat serum in PBS. For the Endoplasmic Reticulum (ER) staining, a Cytopainter ER staining kit (Abcam; Cambridge, Mass.) was used, following the manufacturer's instructions. After washing with 1×Assay buffer, cells were incubated with Green Detection Reagent to cover the monolayer of cells. For the detection of Hst1 and TMEM97, mouse anti-Hst1 antibody (Abcam; Cambridge, Mass.), rabbit primary antibody against Hst1 (Mybiosource; San Diego, Calif.), and rabbit anti-TMEM97 antibody (Novus Bio.; Littleton, Colo.) were used. Cells were incubated overnight at 4° C. with primary antibodies, washed three times for 5 minutes each time in PBS before incubation with secondary antibodies for 30 minutes. Cells were then counterstained with 1 μg/mL 4′,6-diamidino-2-phenylindole (DAPI) solution in PBS for 3 minutes, then washed three times with PBS containing 0.05% TRITON™ X-100 for 5 minutes each time, twice with PBS for 5 minutes each time, and once with distilled water for 10 seconds. The cells were mounted in Fluoro gel with Tris buffer (Electron Microscopy Sciences; Hatfield, Pa.) and observed under a confocal microscope (Zeiss LSM 710 Confocal Microscope; Oberkochen, Germany) using a 40×objective. Fluorescent dye sold under the tradename ALEXA FLUOR® 488 NHS Ester (Molecular Probes; Carlsbad, Calif.) was used for making Alexa-488 coupled synthetic Hst1.
Transfection/Knock-Down of TMEM97. Sub-confluent monolayers of HCE cells in grown in 35-mm six-well plates were transfected with reaction mixtures composed of 100 pmol of small interfering RNA (siRNA) to TMEM97 (Santa Cruz Biotechnology; Dallas, Tex.) for 48 hours and 5 μL of transfection reagent sold under the tradename LIPOFECTAMINE® 2000 (Invitrogen; Carlsbad, Calif.) in culture medium sold under the tradename OPTI-MEMO media (Gibco Life Technologies; Grand Island, N.Y.). Complexes were incubated for 20 minutes at 24° C. and then added to cells at 37° C. Incubation was continued for 24 to 48 hours at 37° C. in 5% CO2. Knock-down (KD) of TMEM97 was confirmed by western blot analysis using a rabbit anti-TMEM97 antibody (Novus Bio.; Littleton, Colo.). […]

The test system of assay [3] is HCE cells. Description: Wound healing in vitro scratch assay. It counts as cell-based, human. As to the method: Transfection/Knock-Down of TMEM97. Sub-confluent monolayers of HCE cells in grown in 35-mm six-well plates were transfected with reaction mixtures composed of 100 pmol of small interfering RNA (siRNA) to TMEM97 (Santa Cruz Biotechnology; Dallas, Tex.) for 48 hours and 5 μL of transfection reagent sold under the tradename LIPOFECTAMINE® 2000 (Invitrogen; Carlsbad, Calif.) in culture medium sold under the tradename OPTI-MEMO media (Gibco Life Technologies; Grand Island, N.Y.). Complexes were incubated for 20 minutes at 24° C. and then added to cells at 37° C. Incubation was continued for 24 to 48 hours at 37° C. in 5% CO2. Knock-down (KD) of TMEM97 was confirmed by western blot analysis using a rabbit anti-TMEM97 antibody (Novus Bio.; Littleton, Colo.).
Wound Healing in vitro Scratch Assay. HCE cells were cultured in a 96-well plate at 5×10^4 (cells/well) seeding density, and were grown to confluence. Subsequently, a straight line scratch mark was made with a multiscratch wound maker (IncuCyte® 96-well WoundMaker Tool, Essen Biosciences; Ann Arbor, Mich.). The cells were then washed twice with PBS to remove cellular debris. […] The wound areas were measured using ImageJ software (ImageJ 1.47v, NIH, Thornwood; Bethesda, Md.). Relative wound closure was calculated by dividing the closure of the treated wound by that of the untreated control wound. […]

The test system of assay [4] is Human corneal epithelial cells. Description: Cell viability of BAK-treated human corneal epithelial cells. Conditions: benzalkonium chloride (BAK) treatment. Type of assay: cell-based. From the text:
Apoptosis. […] BAK and hOsm are standard inducers of corneal epithelial and neuronal cell death and toxicity, phenomena which are associated with ocular surface pain and chronic pain syndromes.

“Also recorded” adds a separate entry of the source. Square brackets hold non-standard residues; d marks the D form. Peptide text beside a SMILES is read from it. pS = N[C@@H](COP(=O)(O)O)C(=O)O

As for `CC(C)C[C@H](NC(=O)[C@H](Cc1ccc(O)cc1)NC(=O)[C@H](CC(N)=O)NC(=O)[C@H](CO)NC(=O)CNC(=O)[C@H](Cc1ccc(O)cc1)NC(=O)[C@H](CC(=O)O)NC(=O)CNC(=O)[C@H](Cc1ccc(O)cc1)NC(=O)[C@H](Cc1ccccc1)NC(=O)[C@@H]1CCCN1C(=O)[C@H](Cc1ccccc1)NC(=O)[C@H](CCC(=O)O)NC(=O)[C@H](CCCNC(=N)N)NC(=O)[C@H](Cc1c[nH]cn1)NC(=O)[C@H](CO)NC(=O)[C@H](Cc1c[nH]cn1)NC(=O)[C@H](Cc1c[nH]cn1)NC(=O)[C@H](CCCCN)NC(=O)[C@H](CCC(=O)O)NC(=O)[C@H](Cc1c[nH]cn1)NC(=O)[C@H](Cc1ccccc1)NC(=O)[C@H](CCCCN)NC(=O)[C@H](CCCNC(=N)N)NC(=O)[C@H](CCCNC(=N)N)NC(=O)[C@H](Cc1ccc(O)cc1)NC(=O)CNC(=O)[C@H](Cc1c[nH]cn1)NC(=O)[C@H](Cc1c[nH]cn1)NC(=O)[C@H](CCCNC(=N)N)NC(=O)[C@H](CCCCN)NC(=O)[C@H](CCC(=O)O)NC(=O)[C@H](Cc1c[nH]cn1)NC(=O)[C@H](COP(=O)(O)O)NC(=O)[C@@H](N)CC(=O)O)C(=O)N[C@@H](Cc1ccc(O)cc1)C(=O)N[C@@H](CC(=O)O)C(=O)N[C@@H](CC(N)=O)C(=O)O` [Hst1] (H-D[pS]HEKRHHGYRRKFHEKHHSHREFPFYGDYGSNYLYDN-OH; N-terminus and C-terminus assumed), the “calcium signaling (relative fluorescence intensity)” value in assay [1] (1, 2 and 4 hours) was “increases calcium signaling”. Also, the “elevated calcium levels after benzalkonium chloride” value in assay [1] (cells treated with 0.001% BAK) is recorded as “reduced elevated calcium levels”. In the assay with HCE cells [2] (exogenously applied Hst1), the “co-immunolocalization with TMEM97” value is “significant overlap” and the “co-localization with endoplasmic reticulum stain” value is listed as “good co-localization”. Further, in the assay on HCE cells [2] (siRNA knock-down of TMEM97), the “internalization and/or localization in TMEM97 KD cells” value is “significantly disrupted internalization and/or localization”. In addition, the “scratch closure / wound healing rate” value with HCE cells [3] (20 or 50 μM, 8 and 16 hours, versus untreated control) is on record as “increases in wound healing rates; also recorded: statistically significant improvement in scratch closure rates”. For the same compound, the “wound closure response in TMEM97 KD cells” value with HCE cells [3] (siRNA knock-down of TMEM97) is given as “abolished this responsiveness; also recorded: loss of this response”. Also, the “BAK-induced loss of cell viability” value in assay [4] is listed as “abrogated”.
